This passage reports target mRNA inhibition results from the OligoGym collection.

“And” between values parts separate entries of the source, which are not always exact repeats. Equal values may be shown once. After the bases stand the sugars from the 5' end (letter, count) and the backbone: PS all phosphorothioate, else s phosphorothioate and o phosphodiester by linkage. Methylation of C is not given here. k = constrained ethyl (cEt); d = 2'-deoxy (DNA)

This series has as its target MALAT1. The following applies: ASO, A431, 0.005 µM.

In the case of ACCAAAGCTGCACTGT (sugars k3 d10 k3, PS), the target mRNA inhibition turned out to be 15%. To ATTCAAGCTGAACTAT (sugars k3 d10 k3, PS) belongs 10%; to AAGATTTGAGCTGCAA (sugars k3 d10 k3, PS), -1%. In the case of GGGAGTTACTTGCCAA (sugars k3 d10 k3, PS), the target mRNA inhibition is 10%. Take TAATTACTCTTGATCT (sugars k3 d10 k3, PS): the target mRNA inhibition is 48% and 72%. For the sequence GGAGTTGAGGCAAGTC (sugars k3 d10 k3, PS), the target mRNA inhibition worked out at 41%. On to GCCTCAATGCCTACCG (sugars k3 d10 k3, PS), for which the target mRNA inhibition was -11%. Take ATACATCAAGGATGTA (sugars k3 d10 k3, PS): the target mRNA inhibition came to 19%. Consider AATCATTGGGAGTTAC (sugars k3 d10 k3, PS), for which the target mRNA inhibition came out at 24%. On to CCTACCGCACAGCTCG (sugars k3 d10 k3, PS), for which the target mRNA inhibition came to 3%. AGCTTTACCTTCTAAC (sugars k3 d10 k3, PS): the target mRNA inhibition was 47%.

On to GAACTCCACAGCTCTT (sugars k3 d10 k3, PS), for which the target mRNA inhibition amounted to 33%.

In the case of GCACGGAAATTTTTCT (sugars k3 d10 k3, PS), the target mRNA inhibition is -3%. Consider GCCCGCTTTCCCCCTT (sugars k3 d10 k3, PS), for which the target mRNA inhibition was -29%. GAAAACCCACTCTTGG (sugars k3 d10 k3, PS): the target mRNA inhibition amounted to 10%.

As for GTTTTATCTAAATACC (sugars k3 d10 k3, PS), the target mRNA inhibition was 29%. For GGGAGTTGAGGCAAGT (sugars k3 d10 k3, PS), the target mRNA inhibition stood at 6%.

For TGCTCCCCGCCTGAGC (sugars k3 d10 k3, PS), the target mRNA inhibition was determined as 24%. Turning to GCTTGGGAAATCTTAG (sugars k3 d10 k3, PS), the target mRNA inhibition is 7%.

On to ATACTGAAAACTCCCC (sugars k3 d10 k3, PS), for which the target mRNA inhibition came out at 14%. In the case of ACCCCAACTAAACATA (sugars k3 d10 k3, PS), the target mRNA inhibition stood at 26%. With TGCCTACCGCACAGCT (sugars k3 d10 k3, PS), the target mRNA inhibition was determined as 19%. Take CTTATTTAGAGGGCCT (sugars k3 d10 k3, PS): the target mRNA inhibition was found to be 36%. Regarding TCTGTTACACCTTGAG (sugars k3 d10 k3, PS), the target mRNA inhibition was 48% and 64%. For AAAATGGCGGACTTTC (sugars k3 d10 k3, PS), the target mRNA inhibition came out at 30%. For GTCAAGACAACTGCAT (sugars k3 d10 k3, PS), the target mRNA inhibition was found to be 3%. Turning to TTACGCAACTGAGCCC (sugars k3 d10 k3, PS), the target mRNA inhibition was 11%. Then TTCCCATAATTGTAGT (sugars k3 d10 k3, PS), with 18%; and CCTACTGAAGAGCATT (sugars k3 d10 k3, PS), with 25%. Turning to ACCTTCTGAACCGGAG (sugars k3 d10 k3, PS), the target mRNA inhibition amounted to 22%. Regarding GCTTACAGATTTGCTG (sugars k3 d10 k3, PS), the target mRNA inhibition came to 8%. CACGGGCTGTCTGCTT (sugars k3 d10 k3, PS): the target mRNA inhibition stood at 18%. Turning to GGACAGCTAAGATAGC (sugars k3 d10 k3, PS), the target mRNA inhibition came to 22%. To CACTGGTACACCCAGT (sugars k3 d10 k3, PS) belongs 15%. Regarding ATTGGTAGCTTTCATT (sugars k3 d10 k3, PS), the target mRNA inhibition is 70% and 83%. On to AACCCCCGGAACTTTT (sugars k3 d10 k3, PS), for which the target mRNA inhibition was 1%.

As to AATTTTTCTACCGTTT (sugars k3 d10 k3, PS), the target mRNA inhibition came out at 11%. For CACAAAACCCCCGGAA (sugars k3 d10 k3, PS), the target mRNA inhibition came out at 19%. TCTTGAGGGACAGTAG (sugars k3 d10 k3, PS): the target mRNA inhibition is -7%. Regarding CACTGATCACTTTAGA (sugars k3 d10 k3, PS), the target mRNA inhibition worked out at 41%. For the sequence TAGGGAAAAGTGGTTG (sugars k3 d10 k3, PS), the target mRNA inhibition was -13%. Consider CAAAAAGTAGTTCTTC (sugars k3 d10 k3, PS), for which the target mRNA inhibition is -18%. On to CTTCTATAGTCTGAAG (sugars k3 d10 k3, PS), for which the target mRNA inhibition was 18%. As for CAAAAGCCCTCTCAGC (sugars k3 d10 k3, PS), the target mRNA inhibition was -14%.

For CAATTTACATCACAAC (sugars k3 d10 k3, PS), the target mRNA inhibition was 45%. On to CTTTAAGTTCTCTGGC (sugars k3 d10 k3, PS), for which the target mRNA inhibition was 64% and 82%. Consider CTTCAACTGGGAATAC (sugars k3 d10 k3, PS), for which the target mRNA inhibition was 7%.

Regarding CCCCCCACGGCCCGCA (sugars k3 d10 k3, PS), the target mRNA inhibition amounted to 26%. Then TTGTCCTACTTTAAGC (sugars k3 d10 k3, PS), with 30%; and TGACACTTTCCTTGCC (sugars k3 d10 k3, PS), with 66% and 46%.
